Entries after “also recorded” stand apart in the source; their conditions may differ. Where two headings read alike, the source gives them in different places.
How the values were obtained:
Assay in all cases: TGFα-shedding assay-based GPCR screening with chimeric Gα subunit proteins
Type in all cases: cell-based
348 GPCRs [1] = biological target: T1, 348 GPCRs (Homo sapiens, UniProt P21917); conditions: 10µM, Favipiravir 100μM
T1 sequence (P21917 1-419): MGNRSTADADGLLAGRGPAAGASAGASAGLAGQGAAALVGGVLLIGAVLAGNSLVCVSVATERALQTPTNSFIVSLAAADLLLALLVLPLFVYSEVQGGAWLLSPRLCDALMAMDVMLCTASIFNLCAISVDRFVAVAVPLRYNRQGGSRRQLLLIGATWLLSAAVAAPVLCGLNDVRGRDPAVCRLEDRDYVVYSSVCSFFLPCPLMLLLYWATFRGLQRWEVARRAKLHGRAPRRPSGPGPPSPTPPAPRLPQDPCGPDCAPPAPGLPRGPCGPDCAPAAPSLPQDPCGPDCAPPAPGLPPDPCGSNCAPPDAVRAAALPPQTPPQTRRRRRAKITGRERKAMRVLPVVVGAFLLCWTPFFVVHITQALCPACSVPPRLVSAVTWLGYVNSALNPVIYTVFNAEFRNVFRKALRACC

348 GPCRs [2] = biological target: T2, 348 GPCRs (Homo sapiens, UniProt P25100)
T2 construct: expressed in transfected cells; host or cells: HEK293A
T2 sequence (P25100 1-572): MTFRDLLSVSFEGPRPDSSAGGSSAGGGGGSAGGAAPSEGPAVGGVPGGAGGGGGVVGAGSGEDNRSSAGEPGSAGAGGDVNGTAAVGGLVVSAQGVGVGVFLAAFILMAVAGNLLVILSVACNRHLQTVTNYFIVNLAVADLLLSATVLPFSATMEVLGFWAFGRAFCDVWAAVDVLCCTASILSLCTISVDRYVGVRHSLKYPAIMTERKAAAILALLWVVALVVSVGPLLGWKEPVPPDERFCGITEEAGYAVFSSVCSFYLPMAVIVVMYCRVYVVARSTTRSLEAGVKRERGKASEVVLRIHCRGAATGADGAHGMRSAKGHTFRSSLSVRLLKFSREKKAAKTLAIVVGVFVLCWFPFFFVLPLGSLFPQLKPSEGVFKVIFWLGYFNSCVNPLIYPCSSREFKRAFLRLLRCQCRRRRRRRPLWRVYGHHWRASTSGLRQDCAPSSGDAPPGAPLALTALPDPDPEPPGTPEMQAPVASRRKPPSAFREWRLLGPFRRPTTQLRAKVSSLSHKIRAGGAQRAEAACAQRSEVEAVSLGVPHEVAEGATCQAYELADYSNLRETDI

348 GPCRs [3] = biological target: T3, 348 GPCRs (Homo sapiens, UniProt Q86VZ1)
T3 construct: expressed in transfected cells; host or cells: HEK293A
T3 sequence (Q86VZ1 whole entry): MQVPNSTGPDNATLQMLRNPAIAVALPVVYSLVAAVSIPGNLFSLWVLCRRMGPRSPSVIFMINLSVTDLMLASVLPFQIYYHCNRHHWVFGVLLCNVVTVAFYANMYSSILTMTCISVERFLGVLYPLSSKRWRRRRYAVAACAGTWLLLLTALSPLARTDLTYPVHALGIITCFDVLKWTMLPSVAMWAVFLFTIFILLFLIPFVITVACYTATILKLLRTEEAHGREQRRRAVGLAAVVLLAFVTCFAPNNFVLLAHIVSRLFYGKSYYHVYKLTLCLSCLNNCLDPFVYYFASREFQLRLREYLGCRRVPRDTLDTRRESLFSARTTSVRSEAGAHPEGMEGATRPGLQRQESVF

348 GPCRs [4] = biological target: T4, 348 GPCRs (Homo sapiens, UniProt Q8IZF2)
T4 construct: expressed in transfected cells; host or cells: HEK293A
T4 sequence (Q8IZF2 22-1346): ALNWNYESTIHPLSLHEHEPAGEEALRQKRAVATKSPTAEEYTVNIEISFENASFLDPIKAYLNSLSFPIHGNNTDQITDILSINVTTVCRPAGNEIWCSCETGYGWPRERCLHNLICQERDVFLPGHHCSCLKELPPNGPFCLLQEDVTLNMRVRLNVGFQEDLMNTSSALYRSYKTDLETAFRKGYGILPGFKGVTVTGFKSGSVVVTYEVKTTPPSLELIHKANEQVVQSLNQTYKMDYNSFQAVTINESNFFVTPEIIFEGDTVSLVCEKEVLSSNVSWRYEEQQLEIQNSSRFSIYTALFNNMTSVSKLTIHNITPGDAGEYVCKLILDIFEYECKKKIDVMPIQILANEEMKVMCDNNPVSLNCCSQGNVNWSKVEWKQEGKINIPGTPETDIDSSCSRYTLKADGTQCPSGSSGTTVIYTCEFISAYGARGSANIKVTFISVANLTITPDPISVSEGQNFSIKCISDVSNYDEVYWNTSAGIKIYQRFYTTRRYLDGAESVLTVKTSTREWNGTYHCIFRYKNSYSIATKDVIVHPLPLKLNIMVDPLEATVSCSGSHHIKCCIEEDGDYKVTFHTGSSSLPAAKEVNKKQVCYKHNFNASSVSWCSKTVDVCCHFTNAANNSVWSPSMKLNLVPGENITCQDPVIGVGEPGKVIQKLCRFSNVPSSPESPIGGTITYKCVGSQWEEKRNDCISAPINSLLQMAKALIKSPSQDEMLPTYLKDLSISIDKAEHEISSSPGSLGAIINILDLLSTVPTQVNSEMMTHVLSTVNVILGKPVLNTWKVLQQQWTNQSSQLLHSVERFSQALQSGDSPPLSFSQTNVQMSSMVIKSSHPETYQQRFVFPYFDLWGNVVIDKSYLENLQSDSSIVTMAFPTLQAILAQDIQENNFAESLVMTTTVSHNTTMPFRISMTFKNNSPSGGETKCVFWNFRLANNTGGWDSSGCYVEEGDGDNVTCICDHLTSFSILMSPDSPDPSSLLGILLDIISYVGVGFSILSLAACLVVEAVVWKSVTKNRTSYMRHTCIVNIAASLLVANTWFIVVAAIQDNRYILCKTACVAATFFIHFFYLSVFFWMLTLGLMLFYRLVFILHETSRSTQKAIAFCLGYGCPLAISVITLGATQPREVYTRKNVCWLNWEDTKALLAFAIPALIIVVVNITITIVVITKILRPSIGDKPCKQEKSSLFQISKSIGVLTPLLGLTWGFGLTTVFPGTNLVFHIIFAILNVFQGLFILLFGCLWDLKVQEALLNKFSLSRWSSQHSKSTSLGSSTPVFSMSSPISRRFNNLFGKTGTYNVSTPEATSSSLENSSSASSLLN

348 GPCRs [5] = biological target: T5, 348 GPCRs (Homo sapiens, UniProt Q9NQS5); conditions: 10µM, Favipiravir 100μM
T5 construct: expressed in transfected cells; host or cells: HEK293A
T5 sequence (Q9NQS5 whole entry): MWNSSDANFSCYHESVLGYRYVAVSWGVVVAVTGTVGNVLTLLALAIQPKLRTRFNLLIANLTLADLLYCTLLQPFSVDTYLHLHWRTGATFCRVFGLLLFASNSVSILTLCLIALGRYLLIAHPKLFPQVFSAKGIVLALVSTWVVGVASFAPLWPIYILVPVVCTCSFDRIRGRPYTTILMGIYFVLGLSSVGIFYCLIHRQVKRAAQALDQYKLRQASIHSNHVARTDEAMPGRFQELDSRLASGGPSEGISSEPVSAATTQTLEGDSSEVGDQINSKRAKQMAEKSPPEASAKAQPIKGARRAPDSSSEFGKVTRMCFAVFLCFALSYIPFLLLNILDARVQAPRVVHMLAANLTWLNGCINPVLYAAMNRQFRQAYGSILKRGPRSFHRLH

348 GPCRs [6] = tested on: 348 GPCRs
[7] = D4 (dopamine receptor D4), read-out: % GPCR activation compared to TPA
[8] = GPCR α1D (adrenoceptor alpha 1D), read-out: % GPCR activation compared to TPA
[9] = GPCR P2Y8 (purinergic receptor P2Y, G-protein coupled, 8), read-out: % GPCR activation compared to TPA
[10] = GPCR GPR116 (G-protein-coupled receptor 116 (ADGRF5)), read-out: % GPCR activation compared to TPA
[11] = GPR84 (G protein-coupled receptor 84), read-out: % GPCR activation compared to TPA
[12] = EP3 iso6 (prostaglandin E receptor 3 iso6), 10µM, Favipiravir 100μM
[13] = GPCR GPR68 long (G protein-coupled receptor 68 long), 10µM
[14] = GPCR LTB4R2B (leukotriene B4 receptor 2), 10µM
[15] = GPCR P2Y13 short (purinergic receptor P2Y, G-protein coupled, 13 short), 10µM
[16] = GPR17 short (G protein-coupled receptor 17 short), 10µM, Favipiravir 100μM
[17] = read-out: % GPCR activation compared to TPA, D4 (dopamine receptor D4)
[18] = read-out: % GPCR activation compared to TPA, GPCR α1D (adrenoceptor alpha 1D)
[19] = read-out: % GPCR activation compared to TPA, GPCR P2Y8 (purinergic receptor P2Y, G-protein coupled, 8)
[20] = read-out: % GPCR activation compared to TPA, GPCR GPR116 (G-protein-coupled receptor 116 (ADGRF5))
[21] = read-out: % GPCR activation compared to TPA, GPR84 (G protein-coupled receptor 84)

Row | activation at 100 µM (348 GPCRs [1]; [7]) | activation at 10 µM (348 GPCRs [2]; [8]) | activation at 10 µM (348 GPCRs [3]; [9]) | activation at 10 µM (348 GPCRs [4]; [10]) | activation at 100 µM (348 GPCRs [5]; [11]) | SMILES | % GPCR activation compared to TPA (348 GPCRs [6]; [12]) | % GPCR activation compared to TPA (348 GPCRs [6]; [13]) | % GPCR activation compared to TPA (348 GPCRs [6]; [14]) | % GPCR activation compared to TPA (348 GPCRs [6]; [15]) | % GPCR activation compared to TPA (348 GPCRs [6]; [16]) | activation at 100 µM (348 GPCRs [1]; [17]) | activation at 10 µM (348 GPCRs [2]; [18]) | activation at 10 µM (348 GPCRs [3]; [19]) | activation at 10 µM (348 GPCRs [4]; [20]) | activation at 100 µM (348 GPCRs [5]; [21]) | also measured
1 | 3.32% | -1.11% | 1.71% | -2.91% | 5.15% | N#C[C@@]1(c2ccc3c(N)ncnn23)O[C@H](CO)[C@@H](O)[C@H]1O [GS441524] | -0.4587% | 3.274% | -0.1822% | 0.9471% | 2.36% | – | – | – | – | – | –
2 | 2.6% | – | – | – | -0.768% | NC(=O)c1nc(F)cnc1O [favipiravir, 6-fluoro-3-hydroxy-2-pyrazinecarboxamide] | 0.2801% | – | – | – | -0.5013% | – | – | – | – | – | activation at 100 µM (348 GPCRs [2]; GPCR α1D (adrenoceptor alpha 1D), 100μM, read-out: % GPCR activation compared to TPA): 1.16%; activation at 100 µM (348 GPCRs [3]; GPCR P2Y8 (purinergic receptor P2Y, G-protein coupled, 8), 100μM, read-out: % GPCR activation compared to TPA): 1.7%; activation at 100 µM (348 GPCRs [4]; GPCR GPR116 (G-protein-coupled receptor 116 (ADGRF5)), 100μM, read-out: % GPCR activation compared to TPA): -1.79%; % GPCR activation compared to TPA (348 GPCRs [6]; GPCR GPR68 long (G protein-coupled receptor 68 long), 100μM): 5.02%; % GPCR activation compared to TPA (348 GPCRs [6]; GPCR LTB4R2B (leukotriene B4 receptor 2), 100μM): -0.02753%; % GPCR activation compared to TPA (348 GPCRs [6]; GPCR P2Y13 short (purinergic receptor P2Y, G-protein coupled, 13 short), 100μM): 1.698%
3 | -1.43% | 0.273% | -9.1% | -2.23% | -3.53% | CC(C)C(=O)OC[C@H]1O[C@@H](n2ccc(NO)nc2=O)[C@H](O)[C@@H]1O [molnupiravir] | -0.792% | -159.537% | -0.2056% | -3.484% | 0.1735% | – | – | – | – | – | –
4 | – | – | – | – | – | CCC(CC)COC(=O)[C@H](C)N[P@](=O)(OC[C@H]1O[C@@](C#N)(c2ccc3c(N)ncnn23)[C@H](O)[C@@H]1O)Oc1ccccc1 [remdesivir] | 1.469% | -2.927% | -0.9744% | 2.55% | 2.96% | 4.84% | 1.67% | 6.38% | -2.59% | 2.57% | GPCR activation in screening against 348 GPCRs (348 GPCRs [6]; 10 μM remdesivir, molnupiravir, 100 μM favipiravir, chimeric Gα): selectively activate UTS2R; also recorded: selective activator for the urotensin-II receptor (UTS2R); effect on adenosine receptors (348 GPCRs [6]; GPCR assay, adenosine receptors): no effect on adenosine receptors
5 | – | – | – | – | – | CC(C)OC(=O)[C@H](C)N[P@](=O)(OC[C@H]1O[C@@H](n2ccc(=O)[nH]c2=O)[C@](C)(F)[C@@H]1O)Oc1ccccc1 [sofosbuvir] | -2.666% | -162.099% | 1.863% | -2.679% | 1.814% | -2.21% | 0.0197% | -3.86% | -0.621% | -3.67% | –

Reference: paper PMC10175918 (Communications Biology, 2023)
